Test results from PubChem BioAssay AID328 (DTP/NCI, 2004).
Values joined by “and” are separate entries in the source; they are usually repeats but may differ in a detail not shown here. Identical values can stand only once. Inconclusive results and toxic doses are left out.

Tested on: BDF1 mice, P388 leukemia ip, median survival T/C
Assay: NCI In Vivo Anticancer Drug Screen. Data for tumor model P388 Leukemia (intraperitoneal) in B6D2F1 (BDF1) mice
Details: endpoint: median survival time, higher = longer survival
Summary of the method: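 Each value expresses how treatment altered survival: treated-mouse outcome over vehicle-mouse outcome, both groups bearing the transplanted tumour.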

[1] = dose: 100.0 mg/kg/injection, schedule: Q01DX009 (ip), vehicle: saline
[2] = dose: 200.0 mg/kg/injection, schedule: Q01DX009 (ip), vehicle: saline
[3] = dose: 100.0 mg/kg/injection, schedule: Q04DX003 (ip), vehicle: saline
[4] = dose: 50.0 mg/kg/injection, schedule: Q01DX009 (ip), vehicle: saline with Tween-80
[5] = dose: 100.0 mg/kg/injection, schedule: Q01DX009 (ip), vehicle: saline with Tween-80
[6] = dose: 200.0 mg/kg/injection, schedule: Q01DX009 (ip), vehicle: saline with Tween-80
[7] = dose: 100.0 mg/kg/injection, schedule: Q01DX001 (ip), vehicle: saline with Tween-80
[8] = dose: 12.5 mg/kg/injection, schedule: Q01DX009 (ip), vehicle: saline with Tween-80
[9] = dose: 12.5 mg/kg/injection, schedule: Q04DX003 (ip), vehicle: saline
[10] = dose: 25.0 mg/kg/injection, schedule: Q01DX009 (ip), vehicle: saline with Tween-80
[11] = dose: 25.0 mg/kg/injection, schedule: Q04DX003 (ip), vehicle: saline
[12] = dose: 12.5 mg/kg/injection, schedule: Q04DX003 (ip), vehicle: saline sonified
[13] = dose: 25.0 mg/kg/injection, schedule: Q04DX003 (ip), vehicle: saline sonified
[14] = dose: 400.0 mg/kg/injection, schedule: Q01DX009 (ip), vehicle: saline with Tween-80

Q: Which T/C [1] does the source give for `O=C(NO)c1ccncc1` here?
A: 120 % of control

Q: And the T/C (dose: 100.0 mg/kg/injection, schedule: Q01DX010 (ip), vehicle: water)?
A: 90 % of control

Q: And the T/C (dose: 132.0 mg/kg/injection, schedule: Q01DX009 (ip), vehicle: saline)?
A: 118 % of control

Q: And the T/C (dose: 200.0 mg/kg/injection, schedule: Q01DX006 (ip), vehicle: water)?
A: 90 % of control

Q: And the T/C [2]?
A: 118 % of control and 120 % of control

Q: What about the T/C (dose: 200.0 mg/kg/injection, schedule: Q01DX010 (ip), vehicle: water) of the same compound?
A: 118 % of control

Q: What about the T/C (dose: 200.0 mg/kg/injection, schedule: Q#A X020 (ip), vehicle: water) of the same compound?
A: 100 % of control

Q: What about the T/C (dose: 222.0 mg/kg/injection, schedule: Q01DX010 (ip), vehicle: water) of the same compound?
A: 113 % of control

Q: What about the T/C (dose: 222.0 mg/kg/injection, schedule: Q02DX005 (ip), vehicle: water) of the same compound?
A: 113 % of control

Q: And the T/C (dose: 300.0 mg/kg/injection, schedule: Q01DX009 (ip), vehicle: saline)?
A: 118 % of control

Q: What about the T/C (dose: 300.0 mg/kg/injection, schedule: Q#A X020 (ip), vehicle: water) of the same compound?
A: 118 % of control

Q: And the T/C (dose: 335.0 mg/kg/injection, schedule: Q02DX005 (ip), vehicle: water)?
A: 109 % of control

Q: What about the T/C (dose: 400.0 mg/kg/injection, schedule: Q01DX006 (ip), vehicle: water) of the same compound?
A: 90 % of control

Q: And the T/C (dose: 400.0 mg/kg/injection, schedule: Q01DX010 (ip), vehicle: water)?
A: 150 % of control

Q: And the T/C (dose: 500.0 mg/kg/injection, schedule: Q01DX001 (ip), vehicle: water)?
A: 109 % of control

Q: And the T/C (dose: 600.0 mg/kg/injection, schedule: Q01DX006 (ip), vehicle: water)?
A: 100 % of control

Q: What about the T/C (dose: 600.0 mg/kg/injection, schedule: Q01DX010 (ip), vehicle: water) of the same compound?
A: 154 % of control

Q: What about the T/C (dose: 750.0 mg/kg/injection, schedule: Q01DX010 (ip), vehicle: water) of the same compound?
A: 154 % of control

Q: And the T/C (dose: 750.0 mg/kg/injection, schedule: Q02DX005 (ip), vehicle: water)?
A: 163 % of control

Q: What about the T/C (dose: 800.0 mg/kg/injection, schedule: Q01DX006 (ip), vehicle: water) of the same compound?
A: 90 % of control

Q: What about the T/C (dose: 1000.0 mg/kg/injection, schedule: Q01DX001 (ip), vehicle: water) of the same compound?
A: 113 % of control

Q: And the T/C (dose: 1500.0 mg/kg/injection, schedule: Q01DX001 (ip), vehicle: water)?
A: 100 % of control

Q: `OCc1cccc(F)c1` was tested. Which T/C [1] did it give?
A: 96 % of control

Q: And the T/C [3]?
A: 109 % of control

Q: What about the T/C [2] of the same compound?
A: 107 % of control

Q: And the T/C (dose: 200.0 mg/kg/injection, schedule: Q04DX003 (ip), vehicle: saline)?
A: 109 % of control

Q: What about the T/C (dose: 400.0 mg/kg/injection, schedule: Q04DX003 (ip), vehicle: saline) of the same compound?
A: 104 % of control

Q: How did the T/C [4] turn out when `CCCCCCCCCOCC1CO1` (configuration not stated) was run?
A: 111 % of control

Q: And the T/C [5]?
A: 110 % of control

Q: And the T/C [6]?
A: 101 % of control

Q: Which T/C [7] does the source give for `CC(=O)Oc1c(Cl)c(Cl)c(Cl)c(Cl)c1Cl` here?
A: 115 % of control

Q: And the T/C (dose: 200.0 mg/kg/injection, schedule: Q01DX001 (ip), vehicle: saline with Tween-80)?
A: 95 % of control

Q: What about the T/C (dose: 400.0 mg/kg/injection, schedule: Q01DX001 (ip), vehicle: saline with Tween-80) of the same compound?
A: 100 % of control

Q: How did the T/C [8] turn out when `CCCCOP(=O)(CCCC)OCCCC` was run?
A: 109 % of control

Q: And the T/C [9]?
A: 100 % of control

Q: What about the T/C [10] of the same compound?
A: 104 % of control

Q: And the T/C [11]?
A: 104 % of control

Q: And the T/C [4]?
A: 109 % of control

Q: And the T/C (dose: 50.0 mg/kg/injection, schedule: Q04DX003 (ip), vehicle: saline)?
A: 104 % of control

Q: Which T/C (dose: 25.0 mg/kg/injection, schedule: Q04DX003 (ip), vehicle: other) does the source give for `CS(=O)(=O)N(CC(=O)O)Cc1ccc(Cl)c(Cl)c1` here?
A: 102 % of control

Q: What about the T/C (dose: 50.0 mg/kg/injection, schedule: Q04DX003 (ip), vehicle: other) of the same compound?
A: 102 % of control

Q: What about the T/C (dose: 100.0 mg/kg/injection, schedule: Q04DX003 (ip), vehicle: other) of the same compound?
A: 93 % of control

Q: What about the T/C (dose: 200.0 mg/kg/injection, schedule: Q04DX003 (ip), vehicle: other) of the same compound?
A: 106 % of control and 107 % of control

Q: What about the T/C (dose: 300.0 mg/kg/injection, schedule: Q04DX003 (ip), vehicle: other) of the same compound?
A: 95 % of control

Q: With `CC(=O)Oc1cc2c(cc1OC(C)=O)C(=O)CCC=C2` as the compound, how does the T/C [8] read?
A: 114 % of control

Q: And the T/C [10]?
A: 109 % of control

Q: What about the T/C [4] of the same compound?
A: 104 % of control

Q: `c1ccc(C[n+]2ccc3ccccc3c2)cc1` was tested. Which T/C (dose: 6.25 mg/kg/injection, schedule: Q01DX009 (ip), vehicle: saline) did it give?
A: 100 % of control

Q: What about the T/C (dose: 12.5 mg/kg/injection, schedule: Q01DX009 (ip), vehicle: saline) of the same compound?
A: 90 % of control

Q: And the T/C [9]?
A: 95 % of control

Q: What about the T/C (dose: 25.0 mg/kg/injection, schedule: Q01DX009 (ip), vehicle: saline) of the same compound?
A: 118 % of control

Q: And the T/C [11]?
A: 100 % of control

Q: How did the T/C (dose: 12.5 mg/kg/injection, schedule: Q01DX009 (ip), vehicle: other) turn out when `CCCCCCCCCCCCCCCCS(=O)(=O)N/N=C/C(=O)O` was run?
A: 116 % of control

Q: How did the T/C (dose: 6.25 mg/kg/injection, schedule: Q04DX003 (ip), vehicle: saline sonified) turn out when `CCC[CH2][Hg][Cl]` was run?
A: 115 % of control

Q: What about the T/C (dose: 11.0 mg/kg/injection, schedule: Q01DX009 (ip), vehicle: saline with Tween-80) of the same compound?
A: 100 % of control

Q: And the T/C [8]?
A: 109 % of control

Q: What about the T/C [12] of the same compound?
A: 110 % of control

Q: What about the T/C (dose: 16.5 mg/kg/injection, schedule: Q01DX009 (ip), vehicle: saline with Tween-80) of the same compound?
A: 150 % of control

Q: And the T/C (dose: 16.5 mg/kg/injection, schedule: Q04DX003 (ip), vehicle: saline sonified)?
A: 113 % of control

Q: What about the T/C [13] of the same compound?
A: 104 % of control

Q: What about the T/C (dose: 37.5 mg/kg/injection, schedule: Q04DX003 (ip), vehicle: saline sonified) of the same compound?
A: 118 % of control

Q: `COc1cc([N+](=O)[O-])cc(C=O)c1OC(=O)c1ccccc1` was tested. Which T/C [4] did it give?
A: 109 % of control

Q: What about the T/C [5] of the same compound?
A: 123 % of control

Q: Which T/C (dose: 100.0 mg/kg/injection, schedule: Q01DX001 (ip), vehicle: saline) does the source give for `CCN=C(N)N=C(N)N` here?
A: 102 % of control

Q: With `CC(C)(C)c1ccc(OCCCOc2ccc(C(=O)O)cc2)cc1` as the compound, how does the T/C [12] read?
A: 95 % of control

Q: And the T/C [13]?
A: 95 % of control

Q: And the T/C (dose: 50.0 mg/kg/injection, schedule: Q04DX003 (ip), vehicle: saline sonified)?
A: 91 % of control

Q: `O=C(CCCC(O)(C1CC1)C1CC1)C1CC1` was tested. Which T/C (dose: 100.0 mg/kg/injection, schedule: Q01DX009 (ip), vehicle: Klucel (hydroxypropylcellulose) (HPC)) did it give?
A: 100 % of control

Q: And the T/C (dose: 200.0 mg/kg/injection, schedule: Q01DX009 (ip), vehicle: Klucel (hydroxypropylcellulose) (HPC))?
A: 115 % of control

Q: Which T/C [5] does the source give for `CC(=O)c1ccc(-c2ccccc2)cc1` here?
A: 100 % of control

Q: What about the T/C [6] of the same compound?
A: 91 % of control

Q: What about the T/C [14] of the same compound?
A: 95 % of control

Q: For `C=CC[N+](CC=C)(CC=C)CCC[N+](CC=C)(CC=C)CC=C`, which T/C (dose: 25.0 mg/kg/injection, schedule: Q04DX003 (ip), vehicle: water) is on record?
A: 107 % of control

Q: What about the T/C (dose: 50.0 mg/kg/injection, schedule: Q04DX003 (ip), vehicle: water) of the same compound?
A: 88 % of control

Q: How did the T/C [3] turn out when `CCCCNP(=O)(N1CC1CC)N1CC1CC` (configuration not stated) was run?
A: 122 % of control

Q: How did the T/C (dose: 25.0 mg/kg/injection, schedule: Q01DX001 (ip), vehicle: saline with Tween-80) turn out when `O=[N+]([O-])c1ccc2c(N=Nc3c(O)ccc4ccccc34)c(O)cc(S(=O)(=O)O)c2c1` was run?
A: 104 % of control

Q: And the T/C (dose: 50.0 mg/kg/injection, schedule: Q01DX001 (ip), vehicle: saline with Tween-80)?
A: 100 % of control

Q: And the T/C [7]?
A: 100 % of control

Q: And the T/C [5]?
A: 104 % of control

Q: What about the T/C [14] of the same compound?
A: 100 % of control

Q: Which results are given for `COc1cc(NC(=O)CC(C)=O)cc2c(C)cc(=O)[nH]c12`?
A: T/C (dose: 75.0 mg/kg/injection, schedule: Q04DX003 (ip), vehicle: Klucel (hydroxypropylcellulose) (HPC)): 91 % of control; T/C (dose: 150.0 mg/kg/injection, schedule: Q04DX003 (ip), vehicle: Klucel (hydroxypropylcellulose) (HPC)): 100 % of control; T/C (dose: 300.0 mg/kg/injection, schedule: Q04DX003 (ip), vehicle: Klucel (hydroxypropylcellulose) (HPC)): 104 % of control

Q: Which results are given for `COc1ccccc1Oc1ccc(N=Cc2ccc(C)cc2)cc1`?
A: T/C (dose: 12.0 mg/kg/injection, schedule: Q01DX001 (ip), vehicle: Klucel (hydroxypropylcellulose) (HPC)): 100 % of control; T/C (dose: 25.0 mg/kg/injection, schedule: Q01DX001 (ip), vehicle: Klucel (hydroxypropylcellulose) (HPC)): 104 % of control; T/C (dose: 50.0 mg/kg/injection, schedule: Q01DX001 (ip), vehicle: Klucel (hydroxypropylcellulose) (HPC)): 95 % of control; T/C (dose: 100.0 mg/kg/injection, schedule: Q01DX001 (ip), vehicle: Klucel (hydroxypropylcellulose) (HPC)): 100 % of control
